{"source": "patent US20050038042A1", "about": "“Modified release composition comprising a short-acting hypnotic for treatment of sleep disorders” (priority 2002, published 2005)", "origin": "cited, not measured here", "key": {"[1]": {"settings": "compared with marketed benzodiazepines"}, "[2]": {"settings": "in humans"}}}
{"smiles": "CCN(C(C)=O)c1cccc(-c2ccnc3c(C#N)cnn23)c1", "note": "[Zaleplon, N-[3-(3-cyanopyrazolo[1,5-a]pyrimidin-7-yl)phenyl]-N-ethylacetamide]", "values": [{"measurement": "effect on sleep onset", "setting": "clinical trials", "result": "effective in shortening sleep onset"}, {"measurement": "safety profile", "setting": "clinical trials, versus previously available benzodiazepine or nonbenzodiazepine hypnotics", "result": "more favorable safety profile"}, {"measurement": "period over which decreased time to sleep onset was shown", "setting": "controlled clinical studies", "result": "up to 28 days"}, {"measurement": "mean duration of effect", "setting": "human, in vivo", "result": "4 to 5", "unit": "h"}, {"measurement": "total sleep time / number of awakenings", "setting": "patients with sleep disorders", "result": "not been shown to consistently increase total sleep time or decrease the number of awakenings"}, {"measurement": "effects in animal models", "setting": "[1]", "result": "sedative, anxiolytic, myorelaxant, and anticonvulsive effects similar to those of marketed benzodiazepines"}, {"measurement": "time to maximum plasma concentration (tmax)", "setting": "[2]", "result": 48, "unit": "min"}]}
